These results are taken from patent US20240382434A1, “CARYOPHYLLENE-CONTAINING COMPOSITION” (SUNSHO PHARMACEUTICAL CO., LTD., priority 2021, published 2024).

What all share (assay type): physicochemical
Holding throughout (conditions): conclusion in words

Data set [1] is described as follows: Experiment 1: Volatilization of menthol. The procedure:
The prepared compositions were placed in petri dishes and used as test samples.
Each test sample was allowed to volatilize without being covered under room temperature conditions for a certain period of time. The mass of each test sample was measured at a given time point. The volatilization amount and rate were calculated from the measured values.
Similarly, the volatilization amount and rate of a test sample using only caryophyllene were also calculated.
The time constant was calculated from the measurement results [by subtracting the volatilization amount of caryophyllene (theoretical value)].
In the table, the unit of the time constant is hour (h) (the same applies hereinafter).

Data set [2] can be described thus: Experiment 3: Freezing resistance.
Description: The amounts (parts by mass (pbm)) of the ingredients shown in the table below were mixed and placed into 20-mL lidded glass bottles to dissolve into solutions. The lidded glass bottles were placed into a water bath set at 25° C. After the temperature reached 25° C., the bottles were kept warm for 30 minutes to adjust the temperature.
Then, the glass bottles were placed in a freezer (at approximately −20° C.). The freezer was opened every 30 minutes to visually check if each solution had solidified. The time point when the solution was partially solidified and the time point when the solution was completely solidified were recorded. Check was made every 30 minutes until 360 minutes had passed, and then 3 days later, visual check was made again. When the menthol had not solidified after 3 days, the result was recorded as non-solidified.
A short description of data set [3]: Experiment 2: Dissolution of menthol.
Description: The amounts (parts by mass (pbm)) of the ingredients shown in the table below were placed into 20-mL lidded glass bottles.
The lidded glass bottles were placed into a water bath set at 25° C. After the temperature reached 25° C., the bottles were kept warm for 30 minutes to adjust the temperature.
The temperature was continuously kept at 25° C. With every 20 minutes, the lidded glass bottles were inverted for mixing and checked visually to see if the menthol had dissolved. The time to complete dissolution was recorded as the time required for the menthol to dissolve. Check was made every 20 minutes until 360 minutes had passed, and then 3 days later, visual check was made again. When the menthol had not dissolved after 3 days, the result was recorded as non-dissolved.

Turning to Caryophyllene, in data set [1], the “Effect on volatilization of menthol” value is “enhances volatilization of menthol”. In addition, the “Effect on freezing resistance of the MCT” value in data set [2] was “improved freezing resistance of the MCT”. The “Effect on dissolution of menthol” value in data set [3] was “enhanced dissolution of menthol”.
